Counter-ions that a name gives are not always drawn. Like-named read-outs stand apart in the source and are kept apart here.
System: Acinetobacter baumannii ATCC17961
Experiment: Antimicrobial susceptibility testing: 90% growth inhibitory concentration (IC90) determination
Assay type: cell-based
Details: Iso-Sensitest broth, growth by OD 600 nm over 16 h, 35±2° C.
Method in brief: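 Twofold serial dilutions (e.g. 50 to 0.097 μM final) in Iso-Sensitest broth, inoculated at ~5×10^(5) CFU/ml, incubated at 35±2° C. OD600 read every 20 min over 16 h; IC90 derived from growth inhibition during logarithmic growth.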

[1] = Acinetobacter baumannii ATCC17961, read-out: ATCC 17961 IC90
[2] = Acinetobacter baumannii, ATCC17961, 16 h, read-out: ATCC 17961 IC90, Acinetobacter baumannii ATCC17961

| SMILES | IC90 [1] | IC90 [2] |
| --- | --- | --- |
| COc1ccc(-c2cnc(C(=O)Nc3ccc(C(=O)N4C[C@@H]5CN(C(=O)[C@@H]6CC[N+](C)(C)C6)C[C@@H]5C4)c(Cl)c3)n2C)c(F)c1F [Example B18, N-[4-[(3aS,6aR)-5-[(3R)-1,1-dimethylpyrrolidin-1-ium-3-carbonyl]-1,3,3a,4,6,6a-hexahydropyrrolo[3,4-c]pyrrole-2-carbonyl]-3-chloro-phenyl]-5-(2,3-difluoro-4-methoxy-phenyl)-1-methyl-imidazole-2-carboxamide; formate] | 300 nM |  |
| COc1ccc(-c2cnc(C(=O)Nc3ccc(C(=O)NCc4cnc(NC(=O)C5CC[N+](C)(CC(N)=O)CC5)s4)c(Cl)c3)n2C)c(F)c1F (centres unmarked) [Example A30, 1-(2-amino-2-oxo-ethyl)-N-[5-[[[2-chloro-4-[[5-(2,3-difluoro-4-methoxy-phenyl)-1-methyl-imidazole-2-carbonyl]amino]benzoyl]amino]methyl]thiazol-2-yl]-1-methyl-piperidin-1-ium-4-carboxamide; formate] | 140 nM |  |
| Cc1cc(NC(=O)c2ncc(-c3ccc(OCC#N)c(F)c3F)n2C)ccc1C(=O)N1CCN(C(=O)C[N+](C)(C)CC(N)=O)CC1 [Example B2, (2-amino-2-oxo-ethyl)-[2-[4-[4-[[5-[4-(cyanomethoxy)-2,3-difluoro-phenyl]-1-methyl-imidazole-2-carbonyl]amino]-2-methyl-benzoyl]piperazin-1-yl]-2-oxo-ethyl]-dimethyl-mmonium; formate] | 230 nM |  |
| COc1ccc(-c2cnc(C(=O)Nc3ccc(C(=O)N4CCN(C(=O)[C@@H]5C[C@H](O)CC[N+]5(C)C)CC4)c(Cl)c3)n2C)c(F)c1F [Example B38, N-[3-chloro-4-[4-[(2S,4R)-4-hydroxy-1,1-dimethyl-piperidin-1-ium-2-carbonyl]piperazine-1-carbonyl]phenyl]-5-(2,3-difluoro-4-methoxy-phenyl)-1-methyl-imidazole-2-carboxamide; formate] |  | 180 nM |
| Cn1c(-c2ccc(OC(F)F)c(F)c2Cl)cnc1C(=O)Nc1ccc(C(=O)N2CCN(C(=O)C3CC[N+](CC(N)=O)(CC(N)=O)CC3)CC2)c(Cl)c1 [Example C9, N-[4-[4-[1,1-bis(2-amino-2-oxo-ethyl)piper-idin-1-ium-4-carbonyl]piper-azine-1-carbon-yl]-3-chloro-phenyl]-5-[2-chloro-4-(difluorometh-oxy)-3-fluoro-phenyl]-1-methyl-imid-azole-2-carbox-amide; formate] |  | 120 nM |
| COc1ccc(-c2cnc(C(=O)Nc3ccc(C(=O)N[C@H]4C[C@@H](NCC[N+](C)(C)C)C4)c(Cl)c3)n2C)c(F)c1F [Example A11, 2-[[3-[[2-chloro-4-[[5-(2,3-difluoro-4-methoxy-phenyl)-1-methyl-imidazole-2-carbonyl]amino]benzoyl]amino]cyclobutyl]amino]ethyl-trimethyl-ammonium; formic acid; formate] | 570 nM |  |
| COc1ccc(-c2cnc(C(=O)Nc3ccc(C(=O)N4CCN(C(=O)N5CC[N+](C)(CC(=O)O)CC5)CC4)c(Cl)c3)n2C)c(F)c1F [Example C36, 2-[4-[4-[2-chloro-4-[[5-(2,3-difluoro-4-methoxy-phenyl)-1-methyl-imidazole-2-carbonyl]amino]benzoyl]piperazine-1-carbonyl]-1-methyl-piperazin-1-ium-1-yl]acetic acid formate] |  | 1100 nM |
| COc1ccc(-c2cnc(C(=O)Nc3ccc(C(=O)N[C@H]4[C@@H]5CN(C(=O)[C@@H]6C[C@@H](O)C[N+]6(C)C)C[C@@H]54)c(Cl)c3)n2C)c(F)c1F [Example B54, N-[3-chloro-4-[(exo)-3-[(2 S,4R)-4-hydroxy-1,1-dimethyl-pyrrolidin-1-ium-2-carbonyl]-3-azabicyclo[3.1.01 hexan-6-yl]carbamoyl]phenyl]-5-(2,3-difluoro-4-methoxy-phenyl)-1-methyl-imidazole-2-carboxamide formate] | 350 nM |  |
| COc1ccc(-c2cnc(C(=O)Nc3ccc(C(=O)N4CCN(C(=O)C5CC[N+](CC(=O)O)(CC6CNC6)CC5)CC4)c(Cl)c3)n2C)c(Cl)c1F (centres unmarked) [Example C40, 2-[1-(azetidin-3-ylmethyl)-4-[4-[2-chloro-4-[[5-(2-chloro-3-fluoro-4-methoxy-phenyl)-1-methyl-imidazole-2-carbonyl]amino]benzoyl]piperazine-1-carbonyl]piperidin-1-ium-1-yl]acetic acid; formate] |  | 540 nM |
| COc1ccc(-c2cnc(C(=O)Nc3ccc(C(=O)N4CCN(C(=O)[C@@H]5C[C@@H](O)C[N+]5(C)C)CC4)c(Cl)c3)n2C)c(C(F)F)c1F [Example B40, N-[3-chloro-4-[4-[(2S,4R)-4-hydroxy-1,1-dimethyl-pyrrolidin-1-ium-2-carbonyl]piperazine-1-carbonyl]phenyl]-5-[2-(difluoromethyl)-3-fluoro-4-methoxy-phenyl]-1-methyl-imidazole-2-carboxamide; formate] |  | 260 nM |

Further lines, with some results ahead:

| IC90 [1] | SMILES | IC90 [2] |
| --- | --- | --- |
| 100 nM | COc1ccc(-c2cnc(C(=O)Nc3ccc(C(=O)N4CCN(C(=O)C[N+]5(C)CCC(O)C5)CC4)c(Cl)c3)n2C)c(F)c1F (centres unmarked) [Example C29, N-[3-chloro-4-[4-[2-(3-hydroxy-1-methyl-pyrrolidin-1-ium-1-yl)acet-yl]piperazine-1-carbonyl]phenyl]-5-(2,3-difluoro-4-methoxy-phenyl)-1-methyl-imid-azole-2-carbox-amide; formate] |  |
| 43 nM | Cn1c(-c2ccc(OC(F)F)c(F)c2Cl)cnc1C(=O)Nc1ccc(C(=O)N2CCN(C(=O)C3CC[N+](C)(CCN)CC3)CC2)c(Cl)c1 (centres unmarked) [Example C12, N-[4-[4-[1-(2-aminoethyl)-1-methyl-piperidin-1-ium-4-carbon-yl]piperazine-1-carbonyl]-3-chloro-phenyl]-5-[2-chloro-4-(difluorometh-oxy)-3-fluoro-phenyl]-1-methyl-imidazole-2-carboxamide; formic acid; formate] |  |
| 290 nM | COc1ccc(-c2cnc(C(=O)Nc3ccc(C(=O)N4CCC(NC(=O)[C@@H]5C[C@@H](O)C[N+]5(C)C)CC4)c(Cl)c3)n2C)c(F)c1F [Example C43, N-[3-chloro-4-[4-[[(2S,4R)-4-hydroxy-1,1-dimethyl-pyrrolidin-1-ium-2-carbonyl]amino]piperidine-1-carbonyl]phenyl]-5-(2,3-difluoro-4-methoxy-phenyl)-1-methyl-imidazole-2-carboxamide;formate] |  |
| 160 nM | COc1ccc(-c2cnc(C(=O)Nc3ccc(C(=O)N4CCN(C(=O)C5CCN(C(=O)C[N+](C)(C)C)CC5)CC4)c(Cl)c3)n2C)c(F)c1F [Example C6, [2-[4-[4-[2-chloro-4-[5-(2,3-difluoro-4-methoxy-phen-yl)-1-methyl-imidazole-2-carbonyl]amino]-benzoyl]piper-azine-1-carbon-yl]-1-piperidyl]-2-oxo-ethyl]-trimethyl-ammonium; formate] |  |

— patent US20240376073A1 (Hoffmann-La Roche Inc., priority 2021, published 2024)
